Converted amounts (≈) assume the structure as drawn. “And” between values parts separate entries of the source, which are not always exact repeats. Identical values can stand only once. Each block holds one compound with its values, some of them ahead of it.
Tests used:
Trypanosoma brucei [1] = assay: (§1) DNDI: Mean survival time in days (MSD) of mice after intraperitoneal injection of Human African Trypanosomiasis (HAT), EATRO 110, in vivo at 20 mg/kg/day for 4 days.; format: functional, Mus musculus
[2] = mouse, microsomes, 1 µM
Description: DNDI: in vitro intrinsic clearance in mouse liver microsomes at a concentration of 1uM

Trypanosoma brucei [3] = assay: as §1; format: functional, Mus musculus; remark: listed apart in the source
Trypanosoma brucei [4] = assay: DNDI: Inhibition of Human African Trypanosomiasis, SBRI 427, in vitro; format: functional, organism-based
[5] = DNDI: Solubility in phosphate buffered saline at pH7.4 measured by nephelometry at room temperature (NEPH-RT); format: physicochemical; settings: pH 7.4
[6] = DNDI: Cytotoxicity against L929 mouse fibroblasts, 72 hour.; format: toxicity, cell-based; settings: mouse, L929 mouse fibroblasts
in vitro = settings: mouse, liver microsomes, t (1 / 2)
Description: DNDI: half life in mouse liver microsomes at a concentration of 1uM

[7] = DNDI: % of compound remaining in rat S9 microsomes at a concentration of 1uM; format: ADME, subcellular, Liver, S9 fraction
[8] = DNDI: Lipophilicity measured in Chromatographic hydrophobicity index (CHI) assay, pH 7.4; format: physicochemical; settings: buffer
[9] = DNDI: half-life in mouse S9 microsomes at a concentration of 1uM; format: ADME, subcellular, Liver, S9 fraction
[10] = DNDI: % of compound remaining in mouse S9 microsomes at a concentration of 1uM after 60 mins; format: ADME, subcellular, Liver, S9 fraction
[11] = DNDI: Cytotoxicity against L929 mouse fibroblasts, CYTO-SP, 24 hour; format: toxicity, cell-based; settings: mouse, L929 mouse fibroblasts
Leishmania donovani = assay: DNDI: Inhibition of formation of Leishmania donovani (strain MHOM/ET/67/L82) axenic amastigotes, in vitro.; format: functional, organism-based
Plasmodium falciparum = assay: DNDI: Inhibition of the malaria parasite Plasmodium falciparum, in vitro; format: functional, organism-based; settings: K1
[12] = DNDI: half life in mouse liver microsomes at a concentration of 10uM; format: ADME, Microsome
[13] = system: Trypanosoma brucei rhodesiense; assay: DNDI: Inhibition of Human African Trypanosomiasis (HAT), STIB 900, in vitro; format: functional, organism-based
[14] = DNDI: Solubility in phosphate buffered saline at pH7.4 measured by optical density (turbidimetry) at room temperature (OD-RT); format: physicochemical; settings: pH 7.4
[15] = DNDI: in vitro intrinsic clearance in human liver microsomes at a concentration of 10uM; format: ADME, Microsome
[16] = DNDI: Cytotoxicity against L-6 rat myoblasts from skeletal muscle cells; format: toxicity, cell-based, L6; settings: L-6 rat skeletal muscle myoblasts
[17] = DNDI: in vitro intrinsic clearance in mouse liver microsomes at a concentration of 10uM; format: ADME, Microsome; settings: read-out: CLint in vitro
Trypanosoma cruzi = assay: DNDI: Inhibition of Chagas Disease parasite Trypanosoma cruzi (Tulahuen LacZ, Clone C4), in vitro.; format: functional, organism-based
[18] = DNDI: half life in human liver microsomes at a concentration of 10uM; format: ADME, Microsome
Trypanosoma brucei [19] = assay: DNDI: Inhibition of Human African Trypanosomiasis, Cross 22, in vitro; format: functional, organism-based
Trypanosoma brucei [20] = assay: DNDI: Inhibition of Human African Trypanosomiasis, EATRO 110, in vitro; format: functional, organism-based
[21] = Trypanosoma brucei, SBRI 427, read-out: IC50

CLint in vitro [2]: 244.61 µL/min/mg
IC50 (Trypanosoma brucei [4]; [21]): 0.16 µg/mL (≈ 0.492 µM)
remaining at 1 µM [7]: 0%
solubility kinetic [5]: 25 µM (≈ 8.14 µg/mL)
chromatographic logD [8]: 4.32
half-life at 1 µM (in vitro): 3.48 min
SMILES: Cc1ccc(Oc2ncccc2/C(=N/O)NC2CCCCC2)cc1
IC50 at 72 h [6]: > 10 µg/mL

IC50 (Trypanosoma brucei [4]; [21]): 1.06 µg/mL (≈ 2.71 µM)
half-life at 1 µM [9]: 3.5 min
SMILES: c1ccc2c(Oc3nc(NCCN4CCCC4)nc4ccsc34)cccc2c1
IC50 at 72 h [6]: > 10 µg/mL

CLint in vitro [2]: 28 µL/min/mg
IC50 (Trypanosoma brucei [4]; [21]): 0.42 µg/mL (≈ 1.15 µM)
remaining at 1 µM [7]: 0%
solubility kinetic [5]: 6 µM (≈ 2.19 µg/mL)
chromatographic logD [8]: 4.67
remaining at 1 h, 1 µM [10]: 59.9%
half-life at 1 µM (in vitro): 31 min
SMILES: CCCCCC(C)NCc1coc(-c2ccc(Oc3ccccc3)cc2)n1 (stereo not given)
IC50 at 72 h [6]: 1.6 µg/mL (≈ 4.39 µM)

IC50 (Leishmania donovani): 27.6 µg/mL (≈ 93.7 µM)
IC50 (Plasmodium falciparum): 2.78 µg/mL (≈ 9.44 µM)
half-life at 10 µM [12]: 57 min
CLint in vitro [2]: 119 µL/min/mg
IC50 [13]: 50.4 µg/mL (≈ 171 µM)
solubility kinetic [14]: 6.3 µM (≈ 1.85 µg/mL)
IC50 (Trypanosoma brucei [4]; [21]): 0.62 µg/mL (≈ 2.11 µM)
remaining at 1 µM [7]: 0%
CLint in vitro [15]: 5 µL/min/mg
chromatographic logD [8]: 4.53
microsomal CLint at 10 µM [17]: 51 µL/min/mg
IC50 (Trypanosoma cruzi): 7.25 µg/mL (≈ 24.6 µM)
half-life at 10 µM [18]: 557 min
remaining at 1 h, 1 µM [10]: 6.85%
half-life at 1 µM (in vitro): 7 min
SMILES: O/N=C(\NC1CCCCC1)c1ccccc1-c1ccccc1
IC50 at 24 h [11]: 50 µg/mL (≈ 170 µM)
IC50 [16]: 41.7 µg/mL (≈ 142 µM)
IC50 at 72 h [6]: > 10 µg/mL

CLint in vitro [2]: 6 µL/min/mg
IC50 (Trypanosoma brucei [4]): 0.24 µg/mL and 0.16 µg/mL
IC50 (Trypanosoma brucei [4]; [21]): 0.27 µg/mL (≈ 0.721 µM)
remaining at 1 µM [7]: 105%
IC50 (Trypanosoma brucei [19]): 0.25 µg/mL (≈ 0.668 µM)
remaining at 1 h, 1 µM [10]: 112%
half-life at 1 µM (in vitro): 154 min
SMILES: CC1CC(NCc2coc(-c3ccc(-c4ccccc4)cc3)n2)CC(C)(C)C1 (stereo not given)
IC50 at 24 h [11]: 7.93 µg/mL (≈ 21.2 µM)
IC50 at 72 h [6]: < 3.13 µg/mL

Second part, the compound before the results:

SMILES: CCCCCC(C)NCc1coc(-c2ccc(OC(CC)CC)cc2)n1 (stereo not given)
MSD (Trypanosoma brucei [1]): 4 days
CLint in vitro [2]: 2 µL/min/mg
MSD (Trypanosoma brucei [3]): 4 days
IC50 (Trypanosoma brucei [4]; [21]): 0.36 µg/mL (≈ 1 µM)
solubility kinetic [5]: 1 µM (≈ 0.359 µg/mL)
IC50 at 72 h [6]: 0.85 µg/mL (≈ 2.37 µM)
half-life at 1 µM (in vitro): 476 min

SMILES: CCCCc1ccc(-c2nc(CNCc3c(OC)cccc3OC)co2)cc1
CLint in vitro [2]: 65 µL/min/mg
MSD (Trypanosoma brucei [3]): 4.5 days
IC50 (Trypanosoma brucei [4]; [21]): 0.32 µg/mL (≈ 0.841 µM)
remaining at 1 µM [7]: 0.169%
solubility kinetic [5]: 6 µM (≈ 2.28 µg/mL)
chromatographic logD [8]: > 5.2
IC50 at 72 h [6]: 1.62 µg/mL (≈ 4.26 µM)
remaining at 1 h, 1 µM [10]: 18.7%
half-life at 1 µM (in vitro): 13 min

SMILES: CCCCCOc1ccc(-c2nc(CNC[C@@H]3CC[C@H]4C[C@@H]3C4(C)C)co2)cc1
IC50 at 24 h [11]: > 50 µg/mL
MSD (Trypanosoma brucei [1]): 4 days
CLint in vitro [2]: 74 µL/min/mg
IC50 (Trypanosoma brucei [4]; [21]): 0.08 µg/mL (≈ 0.202 µM)
solubility kinetic [5]: < 1 µM
chromatographic logD [8]: 6.45
IC50 at 72 h [6]: < 3.13 µg/mL
half-life at 1 µM (in vitro): 12 min

SMILES: CC(C)Oc1ccc(-c2nc(CNC3CCCCCC3)co2)cc1
MSD (Trypanosoma brucei [1]): 4 days
CLint in vitro [2]: 12 µL/min/mg
MSD (Trypanosoma brucei [3]): 4 days
IC50 (Trypanosoma brucei [4]; [21]): 2.39 µg/mL (≈ 7.28 µM)
IC50 at 72 h [6]: 6.77 µg/mL (≈ 20.6 µM)
half-life at 1 µM (in vitro): 68 min

SMILES: CCOc1ccc(-c2nc(CNC3[C@H]4C[C@@H]5C[C@@H](C[C@H]3C5)C4)co2)cc1 (stereo not given in full)
IC50 at 24 h [11]: 43.2 µg/mL (≈ 123 µM)
CLint in vitro [2]: 102 µL/min/mg
IC50 (Trypanosoma brucei [4]): 1.46 µg/mL and 2 µg/mL
IC50 (Trypanosoma brucei [4]; [21]): 1.21 µg/mL (≈ 3.43 µM)
IC50 (Trypanosoma brucei [19]): 2.15 µg/mL (≈ 6.1 µM)
IC50 at 72 h [6]: 6.6 µg/mL (≈ 18.7 µM)
half-life at 1 µM (in vitro): 8 min
IC50 (Trypanosoma brucei [20]): 0.86 µg/mL (≈ 2.44 µM)

SMILES: COc1ccccc1/C(=N/O)NC1CCCCC1
IC50 (Leishmania donovani): 17 µg/mL (≈ 68.5 µM)
IC50 (Plasmodium falciparum): 3.7 µg/mL (≈ 14.9 µM)
half-life at 10 µM [12]: 32 min
IC50 at 24 h [11]: > 50 µg/mL
CLint in vitro [2]: 40 µL/min/mg
IC50 [13]: 7.46 µg/mL (≈ 30 µM)
solubility kinetic [14]: > 200 µM
IC50 (Trypanosoma brucei [4]; [21]): 0.52 µg/mL (≈ 2.09 µM)
remaining at 1 µM [7]: 0%
CLint in vitro [15]: 23 µL/min/mg
chromatographic logD [8]: 3.6
IC50 [16]: 62.3 µg/mL (≈ 251 µM)
microsomal CLint at 10 µM [17]: 91 µL/min/mg
IC50 (Trypanosoma cruzi): > 30 µg/mL
half-life at 10 µM [18]: 128 min
IC50 at 72 h [6]: > 10 µg/mL
remaining at 1 h, 1 µM [10]: 1.05%
half-life at 1 µM (in vitro): 21 min

SMILES: CCCCc1ccc(-c2nc(CNC3[C@H]4C[C@@H]5C[C@@H](C[C@H]3C5)C4)co2)cc1 (stereo not given in full)
IC50 (Leishmania donovani): 9.58 µg/mL (≈ 26.3 µM)
IC50 (Plasmodium falciparum): 0.738 µg/mL (≈ 2.02 µM)
IC50 at 24 h [11]: > 50 µg/mL
MSD (Trypanosoma brucei [1]): 4 days
IC50 [13]: 0.727 µg/mL (≈ 1.99 µM)
IC50 (Trypanosoma brucei [4]): 0.77 ug/ml [middle of 4 runs]
IC50 (Trypanosoma brucei [19]): 0.44 µg/mL (≈ 1.21 µM)
IC50 [16]: 8.8 µg/mL (≈ 24.1 µM)
IC50 (Trypanosoma cruzi): 3.9 µg/mL (≈ 10.7 µM)

Reference: ChEMBL document CHEMBL1857833, “Screening and optimization of specific chemical series against human African Trypanosomiasis (HAT)”
